Measurements reported in patent publication US9302999B2, “Substituted triazoles as herbicides” (E. I. DU PONT DE NEMOURS AND COMPANY, priority 2012, dated 2016).

How the values were obtained:
Assay type in all cases: in vivo
[1] = system: bromegrass, downy (downy bromegrass, Bromus tectorum); assay: Test C pre-/postemergence: bromegrass, downy
Outline: (§1)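 Visual injury scored 0–100 (100 = complete control) against untreated controls after 13–15 greenhouse days. Surfactant-containing solvent formulations applied either to soil after sowing (loam/sand) or over 1- to 4-leaf plants, 2–18 cm tall.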

[2] = system: wheat, winter (winter wheat, Triticum aestivum); assay: Test D pre-/postemergence: wheat, winter
Description: (§2) Seeds of plant species selected from bluegrass (annual bluegrass, Poa annua), blackgrass (Alopecurus myosuroides), canarygrass (Phalaris minor), chickweed (common chickweed, Stellaria media), galium (catchweed bedstraw, Galium aparine), bromegrass, downy (downy bromegrass, Bromus tectorum), field poppy (Papaver rhoeas), field violet (Viola arvensis), foxtail, green (green foxtail, Setaria viridis), deadnettle (henbit deadnettle, Lamium amplexicaule), ryegrass, Italian (Italian ryegrass, Lolium multiflorum), kochia (Kochia scoparia), lambsquarters (Chenopodium album), oilseed rape (Brassica napus), pigweed (Amaranthus retroflexus), Russian thistle (Salsola iberica), chamomile (scentless chamomile, Matricaria inodora), speedwell (bird's-eye speedwell, Veronica persica), barley, spring (spring barley, Hordeum vulgare), wheat, spring (spring wheat, Triticum aestivum), buckwheat, wild (wild buckwheat, Polygonum convolvulus), mustard, wild (wild mustard, Sinapis arvensis), oat, wild (wild oat, Avena fatua), radish, wild (wild radish, Raphanus raphanistrum), windgrass (Apera spica-venti), barley, winter (winter barley, Hordeum vulgare), and wheat, winter (winter wheat, Triticum aestivum) were planted into a silt loam soil and treated preemergence with test chemicals formulated in a non-phytotoxic solvent mixture which included a surfactant. At the same time, these same crop and weed species were planted in pots containing the planting medium comprising spaghnum peat moss, vermiculite, wetting agent and starter nutrients and treated with postemergence applications of the test chemicals formulated in the same manner. Plants ranged in height from 2 to 18 cm (1- to 4-leaf stage).
(§3) Treated plants and controls were maintained in a controlled growth environment for 14 to 21 days after which time all species were compared to controls and visually evaluated. Plant response ratings, summarized in Table D, are based on a scale of 0 to 100 where 0 is no effect and 100 is complete control. A dash (-) response means no test result.

[3] = system: foxtail, green (green foxtail, Setaria viridis); assay: Test C pre-/postemergence: foxtail, green
Outline: as §1

[4] = system: field violet (Viola arvensis); assay: Test D pre-/postemergence: field violet; conditions: Postemergence
Description: as §2, §3

[5] = system: barley, spring (spring barley, Hordeum vulgare); assay: Test D pre-/postemergence: barley, spring
Description: as §2, §3

[6] = system: cocklebur (common cocklebur, Xanthium strumarium); assay: Test C pre-/postemergence: cocklebur
Description: (§4) Seeds of plant species selected from blackgrass (Alopecurus myosuroides), bromegrass, downy (downy bromegrass, Bromus tectorum), foxtail, green (green foxtail, Setaria viridis), ryegrass, Italian (Italian ryegrass, Lolium multiflorum), winter wheat (Triticum aestivum), wild oat (Avena fatua), galium (catchweed bedstraw, Galium aparine), bermudagrass (Cynodon dactylon), surinam grass (Brachiaria decumbens), cocklebur (common cocklebur, Xanthium strumarium), corn (Zea mays), large crabgrass (Digitaria sanguinalis), woolly cupgrass (Eriochloa villosa), foxtail, giant (giant foxtail, Setaria faberii), goosegrass (Eleusine indica), johnsongrass (Sorghum halepense), kochia (Kochia scoparia), lambsquarters (Chenopodium album), morningglory (Ipomoea coccinea), nightshade (eastern black nightshade, Solanum ptycanthum), nutsedge, yellow (yellow nutsedge, Cyperus esculentus), pigweed (Amaranthus retroflexus), ragweed (common ragweed, Ambrosia elation), soybean (Glycine max), common (oilseed) sunflower (Helianthus annuus), Russian thistle (Salsola kali) and velvetleaf (Abutilon theophrasti) were planted into a blend of loam soil and sand and treated preemergence with test chemicals formulated in a non-phytotoxic solvent mixture which included a surfactant.
(§5) At the same time, plants selected from these crop and weed species and also barley (winter barley, Hordeum vulgare), canarygrass (Phalaris minor), chickweed (common chickweed, Stellaria media) windgrass (Apera spica-venti) and deadnettle (henbit deadnettle, Lamium amplexicaule) were planted in pots containing Redi-Earth® planting medium (Scotts Company, 14111 Scottslawn Road, Marysville, Ohio 43041) comprising spaghnum peat moss, vermiculite, wetting agent and starter nutrients and treated with postemergence applications of test chemicals formulated in the same manner. Plants ranged in height from 2 to 18 cm (1- to 4-leaf stage) for postemergence treatments.
as §3, with “greenhouse” for “controlled growth environment”, “13” for “14”, “15 days,” for “21 days”, “C,” for “D,”

[7] = system: surinam grass (Brachiaria decumbens); assay: Test C pre-/postemergence: surinam grass
Description: as §4, §5
as §3, with “greenhouse” for “controlled growth environment”, “13” for “14”, “15 days,” for “21 days”, “C,” for “D,”

[8] = system: windgrass (Apera spica-venti); assay: Test C postemergence: windgrass
Description: as §5
as §3, with “greenhouse” for “controlled growth environment”, “13” for “14”, “15 days,” for “21 days”, “C,” for “D,”

[9] = system: ducksalad (Heteranthera limosa); assay: Test C flooded paddy test: ducksalad; conditions: Heteranthera limosa, scale 0 to 100 (0 no effect, 100 complete control), read-out: Plant response rating, Ducksalad
Outline: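 2-leaf stage plants; pots flooded 3 cm above soil; compound applied into paddy water, depth maintained. Greenhouse 13–15 d. Visual rating vs controls, 0–100 (0 = no effect, 100 = complete control); dash = no result.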

[10] = Postemergence, 31 g ai/ha, scale 0 to 100 (0 no effect, 100 complete control)
[11] = Postemergence, 62 g ai/ha, scale 0 to 100 (0 no effect, 100 complete control)
[12] = Postemergence, 125 g ai/ha, scale 0 to 100, 0 no effect, 100 complete control
[13] = Postemergence, 250 g ai/ha, scale 0 to 100
[14] = Preemergence, 31 g ai/ha, scale 0 (no effect) to 100 (complete control)
[15] = Preemergence, 62 g ai/ha, scale of 0 to 100, 0 is no effect, 100 is complete control
[16] = Preemergence, 125 g ai/ha, scale 0 to 100, 0 no effect, 100 complete control
[17] = Preemergence, 250 g ai/ha, scale 0 to 100, 0 no effect, 100 complete control
[18] = Postemergence, 250 g ai/ha, scale 0 to 100 (0 no effect, 100 complete control)
[19] = Postemergence, 16 g ai/ha, scale 0 to 100
[20] = Preemergence, 16 g ai/ha, scale 0 to 100 (0 no effect, 100 complete control)
[21] = Preemergence, 31 g ai/ha, scale 0 to 100 (0 no effect, 100 complete control)
[22] = Preemergence, 62 g ai/ha, scale 0 to 100
[23] = Preemergence, 125 g ai/ha, scale 0 to 100
[24] = Preemergence, 250 g ai/ha, scale 0 to 100
[25] = 31 g ai/ha, scale 0 to 100 (0 no effect, 100 complete control)
[26] = 62 g ai/ha, scale 0 to 100 (0 no effect, 100 complete control)
[27] = 125 g ai/ha, scale 0 to 100, 0 no effect, 100 complete control
[28] = 250 g ai/ha, scale 0 to 100 (0 no effect, 100 complete control)
[29] = Preemergence, 31 g ai/ha, scale of 0 to 100, 0 is no effect, 100 is complete control
[30] = Preemergence, 62 g ai/ha, scale 0 to 100, 0 no effect, 100 complete control

Compound: CCOc1nn(-c2ccc(F)cc2)nc1Cc1ccnc(C(F)F)c1 [Compound 195]
- Plant response rating, Bromegrass, Downy [1, 10]: 15
- Plant response rating, Bromegrass, Downy [1, 11]: 30
- Plant response rating, Bromegrass, Downy [1, 12]: 50
- Plant response rating, Bromegrass, Downy [1, 13]: 60
- Plant response rating, Bromegrass, Downy [1, 14]: 15
- Plant response rating, Bromegrass, Downy [1, 15]: 45
- Plant response rating, Bromegrass, Downy [1, 16]: 85
- Plant response rating, Bromegrass, Downy [1, 17]: 90
- Plant response rating: Wheat, Winter [2, 10]: 10
- Plant response rating: Wheat, Winter [2, 11]: 10
- Plant response rating: Wheat, Winter [2, 12]: 25
- Plant response rating: Wheat, Winter [2, 18]: 40
- Plant response rating, Wheat, Winter [2, 19]: 5
- Plant response rating, Wheat, Winter [2, 20]: 0
- Plant response rating, Wheat, Winter [2, 21]: 0
- Plant response rating, Wheat, Winter [2, 22]: 0
- Plant response rating, Wheat, Winter [2, 23]: 0
- Plant response rating, Wheat, Winter [2, 24]: 10
- Plant response rating, Foxtail, Green [3, 10]: 100
- Plant response rating, Foxtail, Green [3, 11]: 100
- Plant response rating, Foxtail, Green [3, 12]: 100
- Plant response rating, Foxtail, Green [3, 18]: 100
- Plant response rating, Foxtail, Green [3, 14]: 90
- Plant response rating, Foxtail, Green [3, 15]: 90
- Plant response rating, Foxtail, Green [3, 16]: 90
- Plant response rating, Foxtail, Green [3, 17]: 90
- Plant response rating: Field Violet [4, 25]: 70
- Plant response rating: Field Violet [4, 26]: 75
- Plant response rating: Field Violet [4, 27]: 85
- Plant response rating: Field Violet [4, 28]: 95
- Plant response rating, Field Violet ([4]; 16 g ai/ha, scale 0 to 100): 70
- Plant response rating: Barley, Spring [5, 10]: 15
- Plant response rating: Barley, Spring [5, 11]: 20
- Plant response rating: Barley, Spring [5, 12]: 30
- Plant response rating: Barley, Spring [5, 18]: 40
- Plant response rating, Barley, Spring [5, 19]: 10
- Plant response rating, Barley, Spring [5, 20]: 0
- Plant response rating, Barley, Spring [5, 21]: 0
- Plant response rating, Barley, Spring [5, 22]: 0
- Plant response rating, Barley, Spring [5, 23]: 0
- Plant response rating, Barley, Spring [5, 24]: 30
- Plant response rating, Cocklebur [6, 13]: 50
- Plant response rating, Cocklebur [6, 16]: 0
- Plant response rating, Surinam Grass [7, 10]: 30
- Plant response rating, Surinam Grass [7, 11]: 50
- Plant response rating, Surinam Grass [7, 18]: 60
- Plant response rating, Surinam Grass [7, 14]: 55
- Plant response rating, Surinam Grass [7, 15]: 75
- Plant response rating, Surinam Grass [7, 16]: 85
- Plant response rating, Surinam Grass [7, 17]: 98
- Plant response rating, Windgrass [8, 25]: 55
- Plant response rating, Windgrass [8, 26]: 80
- Plant response rating, Windgrass [8, 27]: 95
- Plant response rating, Windgrass [8, 28]: 100

Compound: Cc1nn(-c2ccc(C(F)(F)F)cc2)nc1Cc1ccnc(C(F)(F)F)c1 [Compound 47, 4-[[5-methyl-2-[4-(trifluoromethyl)phenyl]-2H-1,2,3-triazol-4-yl]methyl]-2-(trifluoromethyl)pyridine]
- Plant response rating, Bromegrass, Downy [1, 10]: 10
- Plant response rating, Bromegrass, Downy [1, 11]: 30
- Plant response rating, Bromegrass, Downy [1, 12]: 50
- Plant response rating, Bromegrass, Downy [1, 13]: 65
- Plant response rating, Bromegrass, Downy [1, 29]: 15
- Plant response rating, Bromegrass, Downy [1, 30]: 40
- Plant response rating, Bromegrass, Downy [1, 16]: 90
- Plant response rating, Bromegrass, Downy [1, 17]: 100
- Plant response rating, Foxtail, Green [3, 10]: 20
- Plant response rating, Foxtail, Green [3, 11]: 98
- Plant response rating, Foxtail, Green [3, 12]: 100
- Plant response rating, Foxtail, Green [3, 13]: 100
- Plant response rating, Foxtail, Green [3, 29]: 100
- Plant response rating, Foxtail, Green [3, 15]: 100
- Plant response rating, Foxtail, Green [3, 16]: 100
- Plant response rating, Foxtail, Green [3, 17]: 100
- Plant response rating, Cocklebur [6, 10]: 10
- Plant response rating, Cocklebur [6, 11]: 65
- Plant response rating, Cocklebur [6, 12]: 70
- Plant response rating, Cocklebur [6, 13]: 70
- Plant response rating, Cocklebur [6, 29]: 0
- Plant response rating, Cocklebur [6, 30]: 0
- Plant response rating, Cocklebur [6, 16]: 0
- Plant response rating, Cocklebur [6, 17]: 5
- Plant response rating, Surinam Grass [7, 10]: 5
- Plant response rating, Surinam Grass [7, 11]: 10
- Plant response rating, Surinam Grass [7, 12]: 60
- Plant response rating, Surinam Grass [7, 13]: 60
- Plant response rating, Surinam Grass [7, 29]: 5
- Plant response rating, Surinam Grass [7, 15]: 20
- Plant response rating, Surinam Grass [7, 16]: 65
- Plant response rating, Surinam Grass [7, 17]: 65
- Plant response rating, Windgrass [8, 25]: 60
- Plant response rating, Windgrass [8, 26]: 80
- Plant response rating, Windgrass [8, 27]: 85
- Plant response rating, Windgrass ([8]; 250 g ai/ha, scale 0 to 100): 100
- pest or weed control at 62 g/ha ([9]; Flood (flooded paddy test), 62 g ai/ha, visual rating after 13 to 15 days): 90%
- pest or weed control at 125 g/ha ([9]; Flood (flooded paddy test), 125 g ai/ha, visual rating after 13 to 15 days): 90%
- pest or weed control at 250 g/ha ([9]; Flood (flooded paddy test), 250 g ai/ha, visual rating after 13 to 15 days): 90%
- pest or weed control at 31 g/ha ([9]; Flood, 31 g ai/ha): 0%
